Laboratory results taken from patent US20250108119A1, “NOVEL STEROID PAYLOADS, STEROID LINKERS, ADCs CONTAINING AND USE THEREOF” (IMMUNEXT, INC., priority 2021, published 2025).

System: LPS stimulated human PBMCs
Assay: LPS stimulated human PBMC, IL-1β and IL-6 ELISA
Type: cell-based
Settings: for inhibition of IL-1β and IL-6 production: Experiment 1: free payload 1000-1 nM, 1 ng/ml LPS; for inhibition of IL-1β and IL-6 production / inhibition of IL-1β production: 24 hr
Protocol: The potency of novel steroids was assessed in a model of LPS stimulated human peripheral blood mononuclear cells (PBMCS). Stimulated PBMCs in this assay produce multiple pro-inflammatory cytokines1.
In all the following experiments, human PBMC, isolated from 1-2 healthy donors per study, were stimulated with LPS to induce cytokine production.
LPS was added either immediately after addition of free payload, or in the case of conjugates, four hours after addition of the conjugate.
Cells were plated in flat bottom 96 well plates at a final concentration of 150,000 cells/well, with technical duplicates for each condition.
Test agents were serially diluted in the assay media and added to a final concentration of 1,000 nM-1 nM or 0.2 nM depending on the assay or as a no treatment control.
LPS stimulation was added to a final concentration of 1 ng/ml.
Human IL-1β and IL-6 ELISA kits were used on supernatants according to vendor protocols. All graphs were prepared with GraphPad (Prism).

[1] = Experiment 6: free payload 1000-0.16 nM

SMILES: C[C@]12C=CC(=O)C=C1[C@@H](F)C[C@H]1[C@@H]3C[C@H]4O[C@H](c5ccc(CC67CC(N)(C6)C7)cc5)O[C@@]4(C(=O)CO)[C@@]3(C)C[C@H](O)[C@@]12F [INX-SM-74, (2S,6aS,6bR,7S,8aS,8bS,10S,11aR,12aS,12bS)-10-(4-((3-aminobicyclo[1.1.1]pentan-1-yl)methyl)phenyl)-2,6b-difluoro-7-hydroxy-8b-(2-hydroxyacetyl)-6a,8a-dimethyl-1,2,6a,6b,7,8,8a,8b,11a,12,12a,12b-dodecahydro-4H-naphtho[2′,1′:4,5]indeno[1,2-d][1,3]dioxol-4-one]
- potency of free payloads (conclusions): moderate potency albeit much weaker than the R stereoisomer with the same halogenation

SMILES: C[C@]12C=CC(=O)C=C1CC[C@@H]1[C@@H]2[C@@H](O)C[C@@]2(C)[C@H]1C[C@H]1O[C@@H](c3ccc(CC4CC5(C4)CC(NC(=O)[C@H](CCC(=O)O)NC(=O)CNC(=O)CBr)C5)cc3)O[C@]12C(=O)COP(=O)(O)O (stereo partly drawn) [INX A7, (S)-4-(2-(2-bromoacetamido)acetamido)-5-((6-(4-((6aR,6bS,7S,8aS,8bS,10R,11aR,12aS,12bS)-7-hydroxy-6a,8a-dimethyl-4-oxo-8b-(2-(phosphonooxy)acetyl)-2,4,6a,6b,7,8,8a,8b,11a,12,12a,12b-dodecahydro-1H-naphtho[2′,1′:4,5]indeno[1,2-d][1,3]dioxol-10-yl)benzyl)spiro[3.3]heptan-2-yl)amino)-5-oxopentanoic acid]
- potency of conjugated linker payloads over INX J (conclusions): enhanced potency

SMILES: C[C@]12C=CC(=O)C=C1CC[C@@H]1[C@@H]2[C@@H](O)C[C@@]2(C)[C@H]1C[C@H]1O[C@H](C34CC(Cc5cccc(N)c5)(C3)C4)O[C@]12C(=O)CO [INX-SM-54, (6aR,6bS,7S,8aS,8bS,10S,11aR,12aS,12bS)-10-(3-(3-aminobenzyl)bicyclo[1.1.1]pentan-1-yl)-7-hydroxy-8b-(2-hydroxyacetyl)-6a,8a-dimethyl-1,2,6a,6b,7,8,8a,8b,11a,12,12a,12b-dodecahydro-4H-naphtho[2′,1′:4,5]indeno[1,2-d][1,3]dioxol-4-one]
- inhibition of IL-1β and IL-6 production (n=1 donor): did not show inhibition

SMILES: C[C@]12C=CC(=O)C=C1[C@@H](F)C[C@H]1[C@@H]3C[C@H]4O[C@@H](c5ccc(CC67CC(N)(C6)C7)cc5)O[C@@]4(C(=O)CO)[C@@]3(C)C[C@H](O)[C@@]12F [INX-SM-24, (2S,6aS,6bR,7S,8aS,8bS,10R,11aR,12aS,12bS)-10-(4-((3-aminobicyclo[1.1.1]pentan-1-yl)methyl)phenyl)-2,6b-difluoro-7-hydroxy-8b-(2-hydroxyacetyl)-6a,8a-dimethyl-1,2,6a,6b,7,8,8a,8b,11a,12,12a,12b-dodecahydro-4H-naphtho[2′,1′:4,5]indeno[1,2-d][1,3]dioxol-4-one]
- inhibition of IL-1β production [1]: increased potency over the non-fluorinated INX-SM-3

SMILES: C[C@]12C=CC(=O)C=C1CC[C@@H]1[C@@H]2[C@@H](O)C[C@@]2(C)[C@H]1C[C@H]1O[C@H](c3cnc(Cc4cccc(N)c4)s3)O[C@]12C(=O)CO [INX-SM-56, (6aR,6bS,7S,8aS,8bS,10S,11aR,12aS,12bS)-10-(2-(3-aminobenzyl)thiazol-5-yl)-7-hydroxy-8b-(2-hydroxyacetyl)-6a,8a-dimethyl-1,2,6a,6b,7,8,8a,8b, 11a,12,12a,12b-dodecahydro-4H-naphtho[2′,1′:4,5]indeno[1,2-d][1,3]dioxol-4-one]
- inhibition of IL-1β production (Experiment 2: free payload 1000-1 nM, n=1 donor): did not show inhibition

SMILES: C[C@]12C=CC(=O)C=C1CC[C@@H]1[C@@H]2[C@@H](O)C[C@@]2(C)[C@H]1C[C@H]1O[C@@H](c3ccc(CC4CC45CCC(NC(=O)[C@H](CCC(=O)O)NC(=O)CNC(=O)CBr)CC5)cc3)O[C@]12C(=O)CO (stereo partly drawn) [INX A9, (4S)-4-(2-(2-bromoacetamido)acetamido)-5-((1-(4-((6aR,6bS,7S,8aS,8bS,10R,11aR,12aS,12bS)-7-hydroxy-8b-(2-hydroxyacetyl)-6a,8a-dimethyl-4-oxo-2,4,6a,6b,7,8,8a,8b,11a,12,12a,12b-dodecahydro-1H-naphtho[2′,1′:4,5]indeno[1,2-d][1,3]dioxol-10-yl)benzyl)spiro[2.5]octan-6-yl)amino)-5-oxopentanoic acid]
- potency of conjugated linker payloads over INX J (conclusions): enhanced potency

SMILES: C[C@]12C=CC(=O)C=C1[C@@H](F)C[C@H]1[C@@H]3C[C@H]4O[C@@H](c5ccc(CC6CC7(C6)CC(NC(=O)[C@H](CCC(=O)O)NC(=O)CNC(=O)CBr)C7)cc5)O[C@@]4(C(=O)COP(=O)(O)O)[C@@]3(C)C[C@H](O)[C@@]12F (stereo partly drawn) [INX A12, (S)-4-(2-(2-bromoacetamido)acetamido)-5-((6-(4-((2S,6aS,6bR,7S,8aS,8bS,10R,11aR,12aS,12bS)-2,6b-difluoro-7-hydroxy-6a,8a-dimethyl-4-oxo-8b-(2-(phosphonooxy)acetyl)-2,4,6a,6b,7,8,8a,8b,11a,12,12a,12b-dodecahydro-1H-naphtho[2′,1′:4,5]indeno[1,2-d][1,3]dioxol-10-yl)benzyl)spiro[3.3]heptan-2-yl)amino)-5-oxopentanoic acid]
- potency of conjugated linker payloads over INX J (conclusions): enhanced potency

SMILES: C[C@]12C=CC(=O)C=C1CC[C@H]1[C@@H]3C[C@H]4O[C@@H](c5ccc(CC67CC(N)(C6)C7)cc5)O[C@@]4(C(=O)CO)[C@@]3(C)C[C@H](O)[C@@]12F [INX-SM-13, (6aS,6bR,7S,8aS,8bS,10R,11aR,12aS,12bS)-10-(4-((3-aminobicyclo[1.1.1]pentan-1-yl)methyl)phenyl)-6b-fluoro-7-hydroxy-8b-(2-hydroxyacetyl)-6a,8a-dimethyl-1,2,6a,6b,7,8,8a,8b,11a,12,12a,12b-dodecahydro-4H-naphtho[2′,1′:4,5]indeno[1,2-d][1,3]dioxol-4-one]
- inhibition of IL-1β production [1]: did not lead to increased potency over the non-fluorinated payload

SMILES: C[C@]12C=CC(=O)C=C1CC[C@@H]1[C@@H]2[C@@H](O)C[C@@]2(C)[C@H]1C[C@H]1O[C@H](c3ccc(CC45CC(N)(C4)C5)cc3)O[C@]12C(=O)CO [INX-SM-53, (6aR,6bS,7S,8aS,8bS,10S,11aR,12aS,12bS)-10-(4-((3-aminobicyclo[1.1.1]pentan-1-yl)methyl)phenyl)-7-hydroxy-8b-(2-hydroxyacetyl)-6a,8a-dimethyl-1,2,6a,6b,7,8,8a,8b, 11a,12,12a,12b-dodecahydro-4H-naphtho[2′,1′:4,5]indeno[1,2-d][1,3]dioxol-4-one]
- inhibition of IL-1β and IL-6 production (n=1 donor): did not show inhibition
